Test results as given in PMC7724630, “Improving the Stability of EGFR Inhibitor Cobalt(III) Prodrugs” (Inorganic Chemistry, 2020).
Like-named read-outs stand apart in the source and are kept apart here.

What was measured:
[1] = tested on: EGFR phosphorylation at position Y1068 and ERK 1/2 in A431 cells; assay: Western blot of EGFR signaling (pEGFR Y1068, pERK 1/2) after EGF stimulation; format: cell-based, Human; details: A431 serum-starved, 2 h drug, EGF 50 ng/mL 10 min, normoxic
[2] = Interaction with low-molecular weight reducing agents (GSH, AA, NADH), UV-vis and fluorometric detection; format: physicochemical; details: 10 equiv of GSH, pH 7.40, 25 °C, 24 h
Method: The interaction of AA, GSH, and NADH at pH 7.40 (phosphate buffer) was investigated exemplarily for Co(acac)2L^+ and Co(Meacac)2L^+. The reaction was followed by ultraviolet–visible (UV–vis) and fluorometric detection at 25 °C with a 10-fold excess of reducing agent. Spectrofluorometry was proven to be an effective technique for monitoring this redox reaction, because the free EGFR inhibitor ligand L is highly fluorescent, while its cobalt(III) complex has negligible emission (vide supra).[17] Accordingly, an increase in the emission intensity is expected upon reduction and concomitant release of the free ligand. […] The same tendency was observed by UV–vis detection (data not shown). […] AA and NADH were also not able to reduce the two complexes even after 24 h. […]
Proton dissociation processes of PhEn were followed by UV–vis spectrophotometry and spectrofluorometry; samples were prepared in water containing 100 and 10 μM ligand, respectively, and 0.1 M KCl at 25 ± 0.2 °C. The proton dissociation constants and the UV–vis or fluorescence emission spectra of the individual species in the various protonation states were calculated by deconvolution of the spectra recorded in the pH range of 2.0–11.5 with PSEQUAD.[40] […] Batch samples contained 30 μM cobalt(III) complex and 10 equiv of AA, GSH, or NADH in PBS buffer (pH 7.40) and were used only once to record their UV–vis and fluorescence spectra. […]

A431 cancer cells = assay: MTT-based cytotoxicity assay under different O2 levels; format: cell-based, Human; details: A431, 72 h
[3] = Cyclic voltammetry, cathodic peak potential Co(III)/Co(II); format: physicochemical; details: 10 mM phosphate buffer pH 7.40, 0.1 M KCl, scan rate 30 mV/s, 1.5 mM complex
Method: As the reduction process is crucial for the activation of cobalt(III)-based prodrug systems, the redox properties of the complexes were investigated to elucidate the effects of ligand methylation at different positions. Cyclic voltammetry measurements were performed in aqueous solution at pH 7.40 (10 mM phosphate buffer with 0.1 M KCl). […] Also, at a much higher scan speed of 1000 mV/s, the redox processes were still completely irreversible (Figure S5).
The compounds were dissolved in 10 mM phosphate buffer (pH 7.40), with 0.1 M KCl as the supporting electrolyte, to obtain a final concentration of 1.5 mM. Electrochemical experiments were conducted on an EG&G PARC 273A potentiostat/galvanostat with scan rates of 30 and 1000 mV/s at room temperature. Argon was bubbled through the solution before every measurement to remove oxygen. A three-electrode configuration cell was used with a glassy carbon electrode as the working electrode, which was polished before every measurement. The reference electrode was Ag/AgCl/KCl (3.5 M), and the auxiliary electrode was a platinum wire. Electrodes were conditioned regularly in 1 M H2SO4 for 5–10 cycles between voltage limits of −1.0 and 1.0 V at a scan rate of 100 mV/s. The system was calibrated with 1.5 mM K3[Fe(CN)6] for every experiment. Redox potentials measured relative to the Ag/AgCl/KCl (3.5 M) reference electrode were converted for potentials against NHE by the addition of 0.205 V. Measurements were repeated at least three times, and the mean values were calculated.

[4] = previous work; cited from earlier work
EGFR (ErbB1) = EGFR (ErbB1) (Homo sapiens, UniProt P00533); assay: Cell-free kinase inhibition assay (ZLYTE, Select Screen); format: biochemical; details: 10 μM ATP (10-fold excess of ATP), 1% DMSO
[5] = design: method as in PMID 29567575; details: pH 7.40; cited from earlier work
[6] = tested on: EGFR phosphorylation at position Y1068 and ERK 1/2 in A431 cells; design: method as in PMID 25079700; details: A431, normoxic; cited from earlier work
Serum stability, HPLC-MS = format: in vitro ADME; details: FCS, 37 °C, pH 7.4, 50 μM, 26 h
Method: The data presented in the previous sections indicate that even in the presence of low-molecular weight reducing agents the cobalt(III) complexes are completely stable. Therefore, we wanted to investigate if this is still true in a more elaborate biological environment like blood serum. To this end, the four EGFR inhibitor complexes were dissolved in 50 mM phosphate puffer and mixed in a 1:10 ratio with fetal calf serum (FCS; buffered with 150 mM phosphate buffer to keep a stable pH of 7.4) to a final concentration of 50 μM. The samples were incubated at 37 °C and after 0, 2, 6, 24, and 26 h extracted with acetonitrile and measured by HPLC-MS. […] The intact complex could be observed at 14.2 min (blue peak, m/z 614.0). The red signal at the same retention time (Figure 7A; 14.2 min, m/z 358.1) is a mass spectrometry artifact and belongs to the free ligand generated during ionization of the complex.
For serum stability measurements, 135 μL of FCS, buffered with 150 mM phosphate (Na2HPO4/NaH2PO4) to maintain a pH value of 7.4, was mixed with 15 μL of a 500 μM stock solution of the respective complex in 50 mM phosphate buffer to reach a final concentration of 50 μM. The samples were incubated at 37 °C. At different time points, to 20 μL of serum was added 40 μL of ACN. […] The supernatant was taken up with a syringe and directly measured via HPLC-MS.

[7] = 0.1% O2, read-out: IC50 hypoxia with 0.1% O2
[8] = 1% O2, read-out: IC50 hypoxia with 1% O2
[9] = 5% O2, read-out: IC50 hypoxia with 5% O2
[10] = 21% O2, read-out: IC50 normoxia

Chain of EGFR (ErbB1) (P00533 25-1210): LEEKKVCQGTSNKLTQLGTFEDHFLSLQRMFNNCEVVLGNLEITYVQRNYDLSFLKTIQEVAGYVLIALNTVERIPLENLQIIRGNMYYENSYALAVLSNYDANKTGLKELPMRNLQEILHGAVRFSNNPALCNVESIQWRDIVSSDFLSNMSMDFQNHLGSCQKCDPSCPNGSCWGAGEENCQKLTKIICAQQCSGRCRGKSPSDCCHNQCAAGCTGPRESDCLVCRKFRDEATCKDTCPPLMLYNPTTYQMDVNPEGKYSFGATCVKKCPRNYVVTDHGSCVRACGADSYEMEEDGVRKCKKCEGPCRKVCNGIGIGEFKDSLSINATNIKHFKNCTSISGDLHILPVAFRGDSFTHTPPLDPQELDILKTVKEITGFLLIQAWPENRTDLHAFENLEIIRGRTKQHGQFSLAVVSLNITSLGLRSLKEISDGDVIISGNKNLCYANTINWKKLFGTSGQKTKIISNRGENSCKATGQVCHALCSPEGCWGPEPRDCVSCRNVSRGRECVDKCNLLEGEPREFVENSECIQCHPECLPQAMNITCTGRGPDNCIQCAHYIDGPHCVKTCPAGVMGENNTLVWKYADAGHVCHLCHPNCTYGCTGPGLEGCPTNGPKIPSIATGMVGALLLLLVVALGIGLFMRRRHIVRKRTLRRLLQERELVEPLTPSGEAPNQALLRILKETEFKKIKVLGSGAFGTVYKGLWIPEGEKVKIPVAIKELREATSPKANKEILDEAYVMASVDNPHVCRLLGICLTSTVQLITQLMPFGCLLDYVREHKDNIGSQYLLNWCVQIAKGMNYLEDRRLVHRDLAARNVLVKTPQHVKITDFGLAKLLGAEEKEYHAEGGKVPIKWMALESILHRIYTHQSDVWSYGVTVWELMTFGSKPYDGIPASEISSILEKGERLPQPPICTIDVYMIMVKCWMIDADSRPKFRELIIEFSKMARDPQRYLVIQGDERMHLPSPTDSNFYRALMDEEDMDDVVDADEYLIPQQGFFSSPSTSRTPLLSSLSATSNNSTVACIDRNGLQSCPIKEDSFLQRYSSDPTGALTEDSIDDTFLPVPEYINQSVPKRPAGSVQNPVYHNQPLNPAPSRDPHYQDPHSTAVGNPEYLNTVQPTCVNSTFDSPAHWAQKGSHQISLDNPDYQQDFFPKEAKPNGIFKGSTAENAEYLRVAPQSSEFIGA

| SMILES | EGFR-inhibitory potential (pEGFR, pERK 1/2) [1] | reduction / release of free ligand L by GSH [2] | IC50 (A431 cancer cells; [7]) | IC50 (A431 cancer cells; [8]) | IC50 (A431 cancer cells; [9]) | IC50 (A431 cancer cells; [10]) | cathodic peak potential (Ec) vs NHE [3] | pKa1 [4] | pKa2 [4] | IC50 (EGFR (ErbB1)) | IC50 (A431 cancer cells; Homo sapiens, A-431, 0.1% O2, read-out: IC50 hypoxia with 0.1% O2) | IC50 (A431 cancer cells; Homo sapiens, A-431, 1% O2, read-out: IC50 hypoxia with 1% O2) | IC50 (A431 cancer cells; Homo sapiens, A-431, 5% O2, read-out: IC50 hypoxia with 5% O2) | IC50 (A431 cancer cells; Homo sapiens, A-431, 21% O2, read-out: IC50 normoxia) | log D7.40 [5] | EGFR-inhibitory potential (pEGFR, pERK 1/2) [6] | intact compound after serum incubation (Serum stability, HPLC-MS) | cobalt complex less active than the respective free ligand (A431 cancer cells; normoxia) |
| --- | --- | --- | --- | --- | --- | --- | --- | --- | --- | --- | --- | --- | --- | --- | --- | --- | --- | --- |
| CC(=O)[C-](C)C(C)=O.CC(=O)[C-](C)C(C)=O.NCCNc1ccc2ncnc(Nc3cccc(Br)c3)c2c1.[Cl-].[Co+3] [Co(Meacac)2L^+, Bis(3-methyl-2,4-pentanedionato) N^6-(2-Aminoethyl)-N^4-(3-bromophenyl)quinazoline-4,6-diamine Cobalt(III) Chloride] | distinctly weakened EGFR-inhibitory potential | practically no reduction process | 23.5 ± 5.1 µM | 25.3 ± 3.9 µM | 45.5 ± 2.7 µM | 51.9 ± 9.4 µM | 4 mV | – | – | – | – | – | – | – | – | – | – | – |
| NCCNc1ccc2ncnc(Nc3cccc(Br)c3)c2c1 [L, N^6-(2-Aminoethyl)-N^4-(3-bromophenyl)quinazoline-4,6-diamine] | – | – | – | – | – | – | – | < 1.0 | 9.21 | 0.00029 µM | 13.7 ± 2.9 µM | 12.7 ± 2 µM | 12.8 ± 0.9 µM | 12 ± 1.3 µM | 1.86 ± 0.03[29] | potent EGFR inhibition | – | – |
| CC(=O)[CH-]C(C)=O.CC(=O)[CH-]C(C)=O.CNCCNc1ccc2ncnc(Nc3cccc(Br)c3)c2c1.[Cl-].[Co+3] [Co(acac)2MeL^+, Bis(2,4-pentanedionato) N^4-(3-Bromophenyl)-N^6-[2-(methylamino)ethyl]quinazoline-4,6-diamine Cobalt(III) Chloride] | – | – | 11.9 ± 3.5 µM | 12.5 ± 3.1 µM | 13.5 ± 3.2 µM | 15.1 ± 1.6 µM | 120 mV | – | – | – | – | – | – | – | – | – | 50% | ~2 fold |
